Consider 14 molecules from ChEMBL document CHEMBL1201862, “PubChem BioAssay data set” (2004).

Among the test systems are RPMI-8226; U-251; EKVX; MOLT-4; HCT-15; SF-268; ACHN; UACC-257; SF-539; SK-MEL-2; SW-620; UO-31; UACC-62; Malme-3M; NCI-H23.
Holding throughout (assay): NCI tumour cell line growth inhibition, 48 h

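Cultured in 96-well plates, cells were exposed to test compound for 48 hours across five concentrations. GI50 is the concentration that inhibits growth by half.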 Calls of active or inactive are those of the source. No stated cut-off is given here; in the data, active = GI50 up to about 1.1 µM and inactive = higher. Some results are limits rather than exact numbers.

With `c1ccc2c(c1)cc1n2CC2CN=NC12` (stereo not given), the GI50 in the assay on RPMI-8226 is > 100 µM (inactive); in the assay on U-251, > 100 µM (inactive); with EKVX, > 100 µM (inactive); in the assay on MOLT-4 it was > 100 µM (inactive); in the assay on HCT-15, more than 100 µM; in the assay on SF-268, > 100 µM (inactive). Besides, the GI50 with ACHN, in the assay on UACC-257, in the assay with SF-539, with SK-MEL-2, in the assay with SW-620 and with UO-31 was > 100 µM (inactive) throughout. Besides, the GI50 with UACC-62 and with Malme-3M was > 100 µM (inactive) each time.

Take `COC(=O)/C(C#N)=C1\CCC(OC)N1` (stereo not given): the GI50 is > 100 µM (inactive) in the assay with RPMI-8226; > 100 µM (inactive) in the assay on U-251; > 100 µM (inactive) with EKVX; > 100 µM (inactive) with MOLT-4; more than 100 µM in the assay with HCT-15; > 100 µM (inactive) in the assay with SF-268. Besides, the GI50 in the assay with NCI-H23, in the assay on ACHN, with UACC-257, in the assay on SF-539, with SK-MEL-2 and with SW-620 was > 100 µM (inactive) in each case. The GI50 in the assay with UO-31, with UACC-62 and in the assay on Malme-3M was > 100 µM (inactive) in each case.

With `CC1=C(C(=O)Nc2ccc([N+](=O)[O-])cc2)C(c2ccccc2F)C(C(=O)Nc2ccc([N+](=O)[O-])cc2)=C(C)N1`, the GI50 in the assay on RPMI-8226 was 3.8 µM (inactive); with U-251 it was 14.9 µM (inactive); in the assay on EKVX, 8.81 µM (inactive); in the assay on MOLT-4, 3.61 µM (inactive); in the assay with SF-268 it was 21.2 µM (inactive); with NCI-H23, 11.2 µM (inactive). In addition, the GI50 in the assay on ACHN was 4.21 µM (inactive); in the assay on UACC-257, 15 µM (inactive); in the assay with SF-539, 17.3 µM (inactive); in the assay with SK-MEL-2 it was 9.31 µM (inactive); with SW-620 it was 21.8 µM (inactive); in the assay with UO-31, 6.61 µM (inactive). Further, the GI50 in the assay on Malme-3M is 13.7 µM (inactive).

Turning to `COC(=O)c1sc(=NC(=S)N2CCCCC2)sc1C(=O)OC`, the GI50 in the assay on RPMI-8226 is > 100 µM (inactive); with U-251, 32.4 µM (inactive); in the assay with MOLT-4, > 100 µM (inactive); in the assay on HCT-15, more than 100 µM; in the assay with SF-268, > 100 µM (inactive); in the assay on ACHN it was > 100 µM (inactive). The GI50 is > 100 µM (inactive) in the assay on UACC-257; > 100 µM (inactive) with SF-539; > 100 µM (inactive) with SK-MEL-2; > 100 µM (inactive) with SW-620; 98.4 µM (inactive) in the assay with UO-31; > 100 µM (inactive) with UACC-62. The GI50 with Malme-3M is > 100 µM (inactive).

Take `CCOP(=O)(OCC)C1=NC=CC=CC1n1c(-c2ccccc2)nn(CC)c1=O` (stereo not given): the GI50 in the assay with RPMI-8226 is > 100 µM (inactive); in the assay with U-251, > 100 µM (inactive); in the assay on EKVX, > 100 µM (inactive); in the assay with MOLT-4, > 100 µM (inactive); in the assay on HCT-15 it was more than 100 µM; in the assay with SF-268 it was > 100 µM (inactive). For the same molecule, the GI50 with NCI-H23, with ACHN, in the assay on UACC-257, with SF-539, in the assay with SK-MEL-2 and with SW-620 was > 100 µM (inactive) throughout. Besides, the GI50 in the assay with UACC-62 and with Malme-3M was > 100 µM (inactive) in each case.

On to `O=C1OC(=O)c2c1c(-c1ccccc1)nc1ccccc21`, for which the GI50 with RPMI-8226 is > 100 µM (inactive); in the assay with U-251, > 100 µM (inactive); in the assay with EKVX it was > 100 µM (inactive); with MOLT-4, > 100 µM (inactive); in the assay with HCT-15, more than 100 µM; in the assay on SF-268 it was > 100 µM (inactive). Further, the GI50 with NCI-H23, with UACC-257, in the assay on SF-539, with SK-MEL-2, in the assay on SW-620 and in the assay with UO-31 was > 100 µM (inactive) each time. For the same molecule, the GI50 in the assay with UACC-62 and in the assay on Malme-3M was > 100 µM (inactive) in each case.

Consider `COc1ccc(/C=C2\C(=O)N(C(=O)Cc3ccccc3)N=C2C)cc1OC`, for which the GI50 in the assay on RPMI-8226 is > 100 µM (inactive); in the assay on EKVX, > 100 µM (inactive); in the assay with MOLT-4 it was > 100 µM (inactive); with HCT-15, more than 100 µM; with SF-268 it was > 100 µM (inactive); in the assay with NCI-H23, > 100 µM (inactive). The GI50 in the assay with ACHN, with UACC-257, in the assay with SF-539, with SK-MEL-2, in the assay on SW-620 and in the assay on UO-31 was > 100 µM (inactive) each time. Also, in the assay on Malme-3M, the GI50 was > 100 µM (inactive).

Regarding `COC(=O)C(=Cc1cc(OC)c(OC)c(OC)c1-c1cc2c(cc1C1(C)OCCS1)OCO2)C(=O)OC` (stereo not given), the GI50 in the assay with RPMI-8226 is 28 µM (inactive); in the assay with U-251, 45.5 µM (inactive); in the assay with EKVX, 35.6 µM (inactive); with MOLT-4, 24 µM (inactive); in the assay on HCT-15, 24.7 µM; in the assay on SF-268, 29.5 µM (inactive). The GI50 in the assay on NCI-H23 is 19.8 µM (inactive); with ACHN, 55.3 µM (inactive); with UACC-257, 31.4 µM (inactive); in the assay with SF-539 it was 40.6 µM (inactive); in the assay with SK-MEL-2 it was 21.1 µM (inactive); in the assay on SW-620, 33.2 µM (inactive). For the same molecule, the GI50 with UACC-62 was 15.5 µM (inactive); in the assay on Malme-3M it was 37.3 µM (inactive).

As to `Cc1cccc2c1Sc1ccccc1C2NC(=O)CCN(C)C` (stereo not given), the GI50 with RPMI-8226 is > 100 µM (inactive); in the assay on U-251, > 100 µM (inactive); with EKVX it was > 100 µM (inactive); in the assay on MOLT-4 it was > 100 µM (inactive); with HCT-15 it was more than 100 µM; in the assay with SF-268 it was > 100 µM (inactive). Besides, the GI50 with NCI-H23, in the assay on ACHN, with UACC-257, in the assay on SF-539, in the assay on SW-620 and in the assay on UO-31 was > 100 µM (inactive) in each case. For the same molecule, the GI50 with UACC-62 is > 100 µM (inactive).

As for `CCC1CN2CCc3cc(OC)c(OC)cc3C2CC1CC1c2cc(OC)c(OC)cc2CCN1C(=O)CNC(=O)OC(C)(C)C` (stereo not given), the GI50 with RPMI-8226 is 19 µM (inactive); in the assay with U-251 it was 5.51 µM (inactive); in the assay with EKVX, 5.05 µM (inactive); in the assay with MOLT-4, 3.44 µM (inactive); with HCT-15, 12.3 µM; in the assay with SF-268, 24.4 µM (inactive). In addition, the GI50 in the assay with NCI-H23 is 21.4 µM (inactive); in the assay with ACHN it was 21.5 µM (inactive); with UACC-257, 21.4 µM (inactive); with SK-MEL-2, 12.4 µM (inactive); with SW-620 it was 4.07 µM (inactive); in the assay with UO-31 it was 24.4 µM (inactive). Further, the GI50 is 19.7 µM (inactive) with UACC-62 and 19.5 µM (inactive) in the assay on Malme-3M.

In the case of `CC1(C)Oc2ccccc2[N+]([O-])=C1c1ccccc1`, the GI50 in the assay on RPMI-8226 is > 100 µM (inactive); in the assay with U-251, > 100 µM (inactive); with MOLT-4, > 100 µM (inactive); in the assay with HCT-15 it was more than 100 µM; in the assay with SF-268, > 100 µM (inactive); in the assay with NCI-H23, > 100 µM (inactive). The GI50 in the assay on ACHN, in the assay with UACC-257, in the assay with SF-539, in the assay with SW-620, with UO-31 and in the assay on UACC-62 was > 100 µM (inactive) each time. Also, in the assay on Malme-3M, the GI50 was > 100 µM (inactive).

`CCC12CCCN(Cc3ccccc3)C1c1c(n(C)c3ccccc13)[C@H](C(=O)OC)C2` (stereo not given in full): the GI50 was > 239 µM (inactive) with RPMI-8226; > 239 µM (inactive) in the assay on U-251; > 239 µM (inactive) with EKVX; > 239 µM (inactive) in the assay with MOLT-4; 85.7 µM in the assay with HCT-15; > 239 µM (inactive) with SF-268. The GI50 in the assay with NCI-H23 was > 239 µM (inactive); in the assay on ACHN, > 239 µM (inactive); in the assay on UACC-257, 110 µM (inactive); in the assay on SF-539, > 239 µM (inactive); with SK-MEL-2, > 239 µM (inactive); in the assay with SW-620, 211 µM (inactive). Further, the GI50 in the assay with UACC-62 and in the assay with Malme-3M was > 239 µM (inactive) throughout.

With `Cc1cc(S(=O)(=O)O)c(NC(=O)C(=O)Cc2cc(=O)oc3cc(O)ccc23)cc1Cl`, the GI50 is > 100 µM (inactive) in the assay on U-251; > 100 µM (inactive) in the assay on EKVX; > 100 µM (inactive) with MOLT-4; more than 100 µM with HCT-15; > 100 µM (inactive) with SF-268; > 100 µM (inactive) with NCI-H23. Besides, the GI50 in the assay with ACHN, with UACC-257, in the assay with SF-539, in the assay on SK-MEL-2, in the assay on SW-620 and in the assay on UO-31 was > 100 µM (inactive) throughout. The GI50 with UACC-62 and in the assay on Malme-3M was > 100 µM (inactive) throughout.

Turning to `CC1C[C@]2(C[C@@H](C)C(=O)O2)O[C@@H]2CC3(C)[C@@H]4CCC5C(C)(C)OC(=O)C[C@H]6OO[C@]4(CC[C@]3(C)C12)CC56O` (stereo not given in full), the GI50 in the assay on RPMI-8226 was > 100 µM (inactive); in the assay on U-251, > 100 µM (inactive); in the assay with HCT-15, more than 100 µM; with NCI-H23, > 100 µM (inactive); in the assay with ACHN, > 100 µM (inactive); in the assay with UACC-257, > 100 µM (inactive). Further, the GI50 in the assay with SF-539, in the assay on SK-MEL-2, in the assay on SW-620, in the assay with UO-31, with UACC-62 and in the assay on Malme-3M was > 100 µM (inactive) in each case.
